Experiments:
Assay type in all cases: in vivo
[1] = system: Soybeans (GLXMA); test: Crop injury after spray with crop rows covered by rain gutters, soybeans (Example 2, Table 6); settings: MSO + AMS
From the text: In a second set of trials Soybeans (GLXMA) were planted in a standard planting system with 30 in row spacing and grown until they reached a BBCH growth stage of 11-12 or roughly 12 cm average height.
Application was made using a CO2 pressurized backpack sprayer and a handheld 6 nozzle boom, operating at 2.5 bar. The application was made at damp soil conditions and a windspeed of 0-15 km/h. The crop rows were covered during the actual spray application using upside down metal rain gutters (10 cm×10 cm depth×width) covering the crop and the soil below of about 5 cm on either side from the crop row center. All treatments included 1.5 L of a methylated seed oil (MSO) and 2 Kg/ha Ammonium sulfate (AMS) salt source and were mixed into 1 L fraction of an equivalent to 200 L/ha spray solution.
(§1) […] The crop injury was rated were visually on a percentage scale in relation to the untreated control (100%=all plants dead; 50%=green plant biomass reduced by 50%, and 0%=no discernible difference=like control plot).

[2] = system: Pepper plants (Capsicum frutescens L., CPSFR); test: Crop injury after shielded spray around transplanted pepper plants (Example 3, Table 7)
From the text: In a third set of trials pepper plants (Capsicum frutescens L., CPSFR) were manually transplanted at a growth stage of BBCH 13 in a field and grown until they reached BBCH growth stage of 14 or roughly 10 cm average crop height.
Application was made using a compressed air sprayer and a handheld 1 nozzle spray lance. The nozzle was shielded by a spray shield to prevent unintended spray drift during application. The application was made at damp soil conditions and calm wind around each single pepper plant. The crop plants were shielded from spray drift during application and spray slurry reached only the soil and weed cover surrounding the pepper plants.
as §1

[3] = system: Soybeans (GLXMA); test: Crop injury after hooded band spot-spray between crop rows, soybeans (Example 1, Table 5); settings: 1440 g a.i./ha, MSO + AMS
From the text: Sunflower (HELAN), Corn (ZEAMD) and Soybeans (GLXMA) were planted in a standard planting system with 30 in row spacing and grown until they reached a BBCH growth stage of 16-18; 12-13 and 14, respectively.
Application was made using a CO2 pressurized backpack sprayer and a handheld two nozzle boom, operating at 2.75 bar. Each of the nozzles (TeeJet Extended Air Induction nozzle 0015) was equipped with a plastic hood covering a 38 cm band left and right of each crop row and preventing unintended spray drift outside the band. The spray solution covered a band of roughly 38 cm on either side of the crop row with an average distance 8 cm to the row center and 2-10 cm distance between soil surface and lower end of the spray shield. The application was made at damp soil conditions and a windspeed of 0-10 km/h. All treatments included 1.5 L of an methylated seed oil (MSO) and 2 Kg/ha Ammonium sulfate (AMS) salt source and were mixed into 1 L fraction of an equivalent to 187 L/ha spray solution.
The crop injury assessments were conducted as visual assessments at 15, 28 and 45 days after application (DAA) in case of Sunflower and soybeans and at 14 and 27 DAA in case of com. Also in case of Table 5 assessments were done in soybeans at 15, 25 and 44 DAA. The crop injury was rated were visually on a percentage scale in relation to the untreated control (100%=all plants dead; 50% =green plant biomass reduced by 50%, and 0%=no discernible difference=like control plot).

Measured: Crop injury [% untreated]

C=CC1(C(=O)NC2COC(C(=O)OC)C2)CC(c2cc(F)cc(F)c2)=NO1 (mixture of isomers) [A 1.68]
0 % untreated: [1]; 100 g a.i./ha, 7 DAA | [1]; 100 g a.i./ha, 15 DAA | [1]; 100 g a.i./ha, 28 DAA | [1]; 100 g a.i./ha, 45 DAA | [1]; 200 g a.i./ha, 7 DAA | [1]; 200 g a.i./ha, 15 DAA | [1]; 200 g a.i./ha, 28 DAA | [1]; 200 g a.i./ha, 45 DAA | [2]; 100 g a.i./ha, 5 DAA | [2]; 100 g a.i./ha, 7 DAA | [2]; 100 g a.i./ha, 14 DAA | [2]; 150 g a.i./ha, 5 DAA | [2]; 150 g a.i./ha, 7 DAA | [2]; 150 g a.i./ha, 14 DAA

O=C(O)CNCP(=O)(O)O [Glyphosate, glyphosate, reference compound]
0 % untreated: [1]; 1440 g a.i./ha, 7 DAA | [1]; 1440 g a.i./ha, 15 DAA | [1]; 1440 g a.i./ha, 28 DAA | [1]; 1440 g a.i./ha, 45 DAA | [3]; 15 DAA | [3]; 25 DAA | [3]; 44 DAA
